From ChEMBL document CHEMBL5260819, “Design and synthesis of 2-phenylpyrimidine coumarin derivatives as anticancer agents” (Bioorg Med Chem Lett, 2017)
Activity calls are given as the source filed them. The rule behind the calls is not given here.

Key:
CNE-2 [1] = assay: Anticancer activity against human CNE-2 cells assessed as inhibition of cell growth; format: functional, cell-based
KB = assay: Anticancer activity against human KB cells assessed as inhibition of cell growth; format: functional, cell-based
CAL-27 = assay: Anticancer activity against human CAL-27 cells assessed as inhibition of cell growth; format: functional, cell-based
[2] = molecular target: Telomerase reverse transcriptase (Homo sapiens, UniProt O14746); assay: Inhibition of telomerase activity in human CNE-2 cells; format: cell-based
CNE-2 [3] = assay: Induction of apoptosis in human CNE-2 cells assessed as live cells at 0.5 uM incubated for 4 days by annexin V-FITC/PI double-staining method (reference value: 91.9%); format: functional; settings: time 4 day
CNE-2 [4] = assay: Induction of apoptosis in human CNE-2 cells assessed as early apoptotic cells at 0.5 uM incubated for 4 days by annexin V-FITC/PI double-staining method (reference value: 8%); format: functional; settings: time 4 day
CNE-2 [5] = assay: Induction of apoptosis in human CNE-2 cells assessed as late apoptotic cells at 0.5 uM incubated for 4 days by annexin V-FITC/PI double-staining method (reference value: 0.1%); format: functional; settings: time 4 day
CNE-2 [6] = assay: Induction of apoptosis in human CNE-2 cells assessed as dead cells at 0.5 uM incubated for 4 days by annexin V-FITC/PI double-staining method (reference value: 0%); format: functional; settings: time 4 day
CNE-2 [7] = assay: Induction of apoptosis in human CNE-2 cells assessed as live cells at 1 uM incubated for 4 days by annexin V-FITC/PI double-staining method (reference value: 91.9%); format: functional; settings: time 4 day
CNE-2 [8] = assay: Induction of apoptosis in human CNE-2 cells assessed as early apoptotic cells at 1 uM incubated for 4 days by annexin V-FITC/PI double-staining method (reference value: 8%); format: functional; settings: time 4 day
CNE-2 [9] = assay: Induction of apoptosis in human CNE-2 cells assessed as late apoptotic cells at 1 uM incubated for 4 days by annexin V-FITC/PI double-staining method (reference value: 0.1%); format: functional; settings: time 4 day
CNE-2 [10] = assay: Induction of apoptosis in human CNE-2 cells assessed as dead cells at 1 uM incubated for 4 days by annexin V-FITC/PI double-staining method (reference value: 0%); format: functional; settings: time 4 day
CNE-2 [11] = assay: Anticancer activity against human CNE-2 cells assessed as reduction in telomer length at 1 uM incubated for 8 days by TRF analysis; format: functional; settings: time 8 day
CNE-2 [12] = assay: Anticancer activity against human CNE-2 cells assessed as shortening of telomer length at 0.5 uM incubated for 8 days by TRF analysis; format: functional, cell-based; settings: time 8.0 day
CNE-2 [13] = assay: Anticancer activity against human CNE-2 cells assessed as induction of senescence by measuring shortening of telomer length at 0.5 to 1 uM incubated for 8 days by TRF analysis; format: functional, cell-based; settings: dose 0.5-1 µM, time 8.0 day

Telomerase reverse transcriptase, sequence (O14746 whole entry): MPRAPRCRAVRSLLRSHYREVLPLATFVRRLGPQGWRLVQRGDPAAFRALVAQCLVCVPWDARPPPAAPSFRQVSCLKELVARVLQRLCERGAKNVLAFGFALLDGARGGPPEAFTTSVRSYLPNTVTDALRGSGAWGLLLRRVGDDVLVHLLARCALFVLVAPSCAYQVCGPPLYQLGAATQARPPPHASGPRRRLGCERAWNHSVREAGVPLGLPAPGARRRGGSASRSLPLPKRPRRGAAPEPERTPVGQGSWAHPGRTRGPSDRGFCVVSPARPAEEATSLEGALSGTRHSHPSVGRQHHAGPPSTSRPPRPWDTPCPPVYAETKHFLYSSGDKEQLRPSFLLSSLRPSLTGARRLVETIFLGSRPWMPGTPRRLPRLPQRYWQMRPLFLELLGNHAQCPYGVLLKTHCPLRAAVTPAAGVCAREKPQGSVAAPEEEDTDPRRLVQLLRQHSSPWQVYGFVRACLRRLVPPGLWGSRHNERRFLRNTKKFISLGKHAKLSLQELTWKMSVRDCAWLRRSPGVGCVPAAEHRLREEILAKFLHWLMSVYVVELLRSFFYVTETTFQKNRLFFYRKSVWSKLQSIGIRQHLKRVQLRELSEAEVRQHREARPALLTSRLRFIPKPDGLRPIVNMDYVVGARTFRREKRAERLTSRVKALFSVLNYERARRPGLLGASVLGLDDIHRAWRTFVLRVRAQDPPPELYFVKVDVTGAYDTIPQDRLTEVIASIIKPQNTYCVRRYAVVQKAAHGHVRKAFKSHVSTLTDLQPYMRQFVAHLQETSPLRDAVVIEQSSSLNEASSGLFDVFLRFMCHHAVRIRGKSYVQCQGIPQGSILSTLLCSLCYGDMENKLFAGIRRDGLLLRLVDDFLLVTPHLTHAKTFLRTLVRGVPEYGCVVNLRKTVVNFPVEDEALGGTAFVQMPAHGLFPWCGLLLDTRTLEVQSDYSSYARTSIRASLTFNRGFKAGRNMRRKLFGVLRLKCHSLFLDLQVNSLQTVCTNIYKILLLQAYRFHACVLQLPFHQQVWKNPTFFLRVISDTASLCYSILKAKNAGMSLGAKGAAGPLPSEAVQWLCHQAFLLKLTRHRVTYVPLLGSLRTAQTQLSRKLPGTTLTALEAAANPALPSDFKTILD

SMILES | IC50 (CNE-2 [1]) [µM] | IC50 (KB) [µM] | IC50 (CAL-27) [µM] | IC50 [2] [µM] | further results
Nc1nc(-c2cccc(OS(=O)(=O)c3ccc([N+](=O)[O-])cc3)c2)nc2c1c(=O)oc1ccccc12 | 16.2 | 17 | 3.54 | 21.1 | 
COc1ccc(S(=O)(=O)Oc2cccc(-c3nc(N)c4c(=O)oc5ccccc5c4n3)c2)cc1 | 16.6 | 18.6 | 9.63 |  | 
COC(=O)c1ccc(S(=O)(=O)Oc2cccc(-c3nc(N)c4c(=O)oc5ccccc5c4n3)c2)s1 | > 100 | 38.4 | 47.5 |  | 
Nc1nc(-c2cccc(OS(=O)(=O)c3ccc(C(F)(F)F)cc3)c2)nc2c1c(=O)oc1ccccc12 | 2.34 | 7.35 | 4.32 |  | 
Nc1nc(-c2cccc(OS(=O)(=O)c3cccs3)c2)nc2c1c(=O)oc1ccccc12 | 4.24 | 5.62 | 10.1 | 7.35 | 
COc1ccc(S(=O)(=O)Oc2cccc(-c3nc(N)c4c(=O)oc5ccccc5c4n3)c2)cc1OC | 20.6 | 29.7 | 17.6 | 6.32 | 
CS(=O)(=O)Oc1cccc(-c2nc(N)c3c(=O)oc4ccccc4c3n2)c1 | > 100 | > 100 | > 100 | 58.6 | 
Nc1nc(-c2cccc(OS(=O)(=O)c3ccccc3)c2)nc2c1c(=O)oc1ccccc12 | 3.44 | 6.74 | 2.58 | 3.16 | 
Nc1nc(-c2cccc(OS(=O)(=O)c3ccc(F)cc3)c2)nc2c1c(=O)oc1ccccc12 | 4.23 | 11.6 | 4.91 |  | 
Nc1nc(-c2cccc(OS(=O)(=O)c3ccc(Br)s3)c2)nc2c1c(=O)oc1ccccc12 | 18.6 | 36.2 | 18.3 |  | 
Nc1nc(-c2cccc(OS(=O)(=O)c3ccc(Br)cc3)c2)nc2c1c(=O)oc1ccccc12 | 11.1 | 15.8 | 18.1 |  | 
Nc1nc(-c2cccc(OS(=O)(=O)c3ccc(Cl)s3)c2)nc2c1c(=O)oc1ccccc12 | 14.6 | 20.9 | 11.2 |  | 
CN(C)c1ccc(S(=O)(=O)Oc2cccc(-c3nc(N)c4c(=O)oc5ccccc5c4n3)c2)cc1 | 1.92 | 3.72 | 1.97 | 0.82 | Activity (CNE-2 [3]): 65%; Activity (CNE-2 [4]): 28.2%; Activity (CNE-2 [5]): 6.7%; Activity (CNE-2 [6]): 0.1%; Activity (CNE-2 [7]): 45.2%; Activity (CNE-2 [8]): 39.5%; Activity (CNE-2 [9]): 15.4%; Activity (CNE-2 [10]): 0%; Activity (CNE-2 [11]): 0.8 kilobase; Activity (CNE-2 [12]): Active; Activity (CNE-2 [13]): Active
COc1cccc2c1C(=O)c1c(O)c3c(c(O)c1C2=O)C[C@@](O)(C(=O)CO)C[C@@H]3O[C@H]1C[C@H](N)[C@H](O)[C@H](C)O1 [DOXORUBICIN] | 2.12 | 3.04 | 1.56 |  | 
